Results published in patent US5128331A, “Method for lowering plasma lipid levels or blood pressure” (priority 1988, dated 1992).
Entries after “also recorded” stand apart in the source; their conditions may differ. Read-outs that look alike come from different tables or passages of the source.

How the values were obtained:
Type in all cases: in vivo
[1] = tested on: rat paw oedema; assay: Anti-inflammatory activity: kappa carrageenan rat paw oedema model; details: for Inhibition of rat right hind paw volume increase, % Change from control: 4 hours post oedema induction, test compounds 100 mg/kg, indomethacin 30 mg/kg by gavage 1 hour prior; for anti-inflammatory activity (in words): rat paw oedema, 4 hours
Experimental: The effect of four selected diphosphates was investigated on the inflammatory response to kappa carrageenan in the rat paw oedema model. Eight male rats were employed per group. Oedema was induced in the right hind paw of each animal by a single injection into the plantar aponeurosis of 0.1 ml of a 1% w/v of kappa carrageena solution dissolved in 0.9% NaCl. The test compounds (100 mg/kg) and reference drug (indomethacin 30 mg/kg) were administered by gavage 1 hour prior to induction of oedema by carrageanan injection.
The volume of the right paw was measured for each animal at 0, 1, 2.5 and 4 hours after carrageenan injection (only 4 hour values are reported.

[2] = tested on: mice of the OF1 strain; assay: Hypolipidemic activity: plasma cholesterol and plasma triglycerides in mice fed compound in chow; details: for change in vivo at 180 mg/kg: Mus musculus, feed or water, 240 h
Experimental: With the goal of finding new drugs which might be hypolipidemic, the new diphosphonates described in this patent application were administered orally to mice. This rodent species has plasma lipid level relatively close to man (generally greater than 150 mg/dl). For example, in mice receiving a normal diet the plasma cholesterol and triglyceride levels are in the range of 100 mg/dl, whereas for rat the comparative values are close to 50 mg/dl.
In every screening experiment, 30 mice of the OF1 strain weighing 25 to 35 g were divided into 5 groups of 6 animals each. Four groups received the compounds to be tested, or the reference drugs, the fifth group served as control. Compounds were dissolved in diethyl ether, and solution was added to the pelleted food and the ether was evaporated.
All compounds were tested at the final concentration of 0.1% in animal chow, equivalent to a daily intake of about 180 mg/kg. This diet was fed for 10 days, then after an overnight fasting the animals were sacrified by decapitation under ether anesthesia. Blood samples were collected in EDTA containing tubes.
Plasma cholesterol and plasma triglycerides were measured by enzymatic methods (Ames kit No. 6376 and No. 6630).

[3] = tested on: spontaneously hypertensive rat (SHR); assay: Oral hypotensive activity in spontaneously hypertensive rats (SHR); details: for Percent change in blood pressure: 2 hours post dose, Table 5
Experimental: The spontaneously hypertensive rat (SHR) is a well established animal model of human arterial hypertension.
In screening experiments various gem-diphosphonates were dissolved in Tween-80 and administered orally to SH rats. Blood pressure was monitored hourly using a tailcuff method.

[4] = read-out: Cholesterol (% control)
[5] = read-out: Triglycerides (% control)
[6] = mice, 0.1% in animal chow (about 180 mg/kg daily), 10 days, Table 3, given as change from control, read-out: Cholesterol (% control)
[7] = mice, 0.1% in animal chow (about 180 mg/kg daily), 10 days, Table 3, given as change from control, read-out: Triglycerides (% control)

CCOP(=O)(OCC)C(Cc1cc(C(C)(C)C)c(O)c(C(C)(C)C)c1)P(=O)(OCC)OCC [Compound 4, Tetraethyl 2-(3,5-ditertiarybutyl-4-hydroxyphenyl)-ethylidene-1,1-diphosphonate]
Inhibition of rat right hind paw volume increase, % Change from control [1]: +1.5 % Change from control
change in vivo at 180 mg/kg [2, 4]: -12%
change in vivo at 180 mg/kg [2, 5]: -1%
hypocholesterolemic activity (in words) ([2]; mice, 0.1% in chow, 10 days): hypocholesterolemic
hypotensive potency compared with reference drugs (in words) [3]: as potent as the reference drugs
Percent change in blood pressure [3]: -34%

CC(C)(C)c1cc(C=C(P(=O)(O)O)P(=O)(O)O)cc(C(C)(C)C)c1O [Compound 36]
Inhibition of rat right hind paw volume increase, % Change from control [1]: -25.0 % Change from control
anti-inflammatory activity (in words) [1]: significant inhibitory activities
change in vivo at 180 mg/kg [2, 6]: -9%
change in vivo at 180 mg/kg [2, 7]: -5%

CCCCOP(=O)(OCCCC)C(Cc1cc(C(C)(C)C)c(O)c(C(C)(C)C)c1)P(=O)(OCCCC)OCCCC [Compound 7, Tetrabutyl 2-(3,5-ditertiary-4-hydroxyphenyl)-ethylidene-1,1-diphosphonate]
change in vivo at 180 mg/kg [2, 4]: -23%
change in vivo at 180 mg/kg [2, 5]: -15%
hypocholesterolemic activity (in words) ([2]; mice, 0.1% in chow, 10 days): hypocholesterolemic
hypotriglyceridemia (in words) ([2]; mice, 0.1% in chow, 10 days): significant hypotriglyceridemia
hypotensive potency compared with reference drugs (in words) [3]: as potent as the reference drugs
Percent change in blood pressure [3]: -30%

CCOP(=O)(OCC)C(=Cc1cc(C(C)(C)C)c(O)c(C(C)(C)C)c1)P(=O)(OCC)OCC [Compound 33, Tetraethyl 2-(3,5-ditertiarybutyl-4-hydroxyphenyl)-ethenylidene-1,1-diphosphonate]
Inhibition of rat right hind paw volume increase, % Change from control [1]: -5.8 % Change from control
change in vivo at 180 mg/kg [2, 4]: -40%
change in vivo at 180 mg/kg [2, 5]: -21%
hypocholesterolemic activity (in words) ([2]; mice, 0.1% in chow, 10 days): hypocholesterolemic
hypocholesterolemic potency (plasma cholesterol change) ([2]; mice, 0.1% in chow, 10 days): -40%
hypotriglyceridemia (in words) ([2]; mice, 0.1% in chow, 10 days): significant hypotriglyceridemia

CC(C)OP(=O)(OC(C)C)C(Cc1cc(C(C)(C)C)c(O)c(C(C)(C)C)c1)P(=O)(OC(C)C)OC(C)C [Compound 6]
change in vivo at 180 mg/kg [2, 4]: -37%
change in vivo at 180 mg/kg [2, 5]: -34%
hypocholesterolemic activity (in words) ([2]; mice, 0.1% in chow, 10 days): hypocholesterolemic
hypotriglyceridemia (in words) ([2]; mice, 0.1% in chow, 10 days): significant hypotriglyceridemia
hypotensive potency compared with reference drugs (in words) [3]: as potent as the reference drugs
Percent change in blood pressure [3]: -64%

CCOP(=O)(OCC)C(Cc1cc(C(C)CC)c(O)c(C(C)CC)c1)P(=O)(OCC)OCC (centres unmarked) [Compound 3]
change in vivo at 180 mg/kg [2, 4]: -19%
change in vivo at 180 mg/kg [2, 5]: -46%
decreased plasma triglycerides by ([2]; mice, 0.1% in chow, 10 days): more than 44%
hypocholesterolemic activity (in words) ([2]; mice, 0.1% in chow, 10 days): hypocholesterolemic
hypotriglyceridemia (in words) ([2]; mice, 0.1% in chow, 10 days): significant hypotriglyceridemia
Percent change in blood pressure [3]: -20%

CCCCOP(=O)(OCCCC)C(Cc1cc(C(C)(C)C)c(O)c(C(C)(C)C)c1)P(=O)(OCC)OCC (centres unmarked) [Compound 18]
change in vivo at 180 mg/kg [2, 4]: -31%
change in vivo at 180 mg/kg [2, 5]: 60%
hypocholesterolemic activity (in words) ([2]; mice, 0.1% in chow, 10 days): hypocholesterolemic
hypotensive potency compared with reference drugs (in words) [3]: as potent as the reference drugs
Percent change in blood pressure [3]: -41%

CC(C)(C)c1cc(CC(P(=O)(O)O)P(=O)(O)O)cc(C(C)(C)C)c1O [Compound 8, 2-(3,5-ditertiarybutyl-4-hydroxyphenyl)-ethylidene-1,1-diphosphonic acid]
Inhibition of rat right hind paw volume increase, % Change from control [1]: -54.2 % Change from control
anti-inflammatory activity (in words) [1]: significant inhibitory activities; also recorded: anti-inflammatory
change in vivo at 180 mg/kg [2, 6]: -2%
change in vivo at 180 mg/kg [2, 7]: 19%

COc1ccc([C@@H]2Sc3ccccc3N(CCN(C)C)C(=O)[C@@H]2OC(C)=O)cc1 [Diltiazem, reference compound]
Percent change in blood pressure [3]: -38%

CCCCOP(=O)(OCCCC)C(=Cc1cc(C(C)(C)C)c(O)c(C(C)(C)C)c1)P(=O)(OCC)OCC [Compound 42, Dibutyl diethyl 2-(3,5-ditertiarybutyl-4-hydroxyphenyl)-ethenylidene-1,1-diphosphonate]
change in vivo at 180 mg/kg [2, 4]: 12%
change in vivo at 180 mg/kg [2, 5]: 1%

CC(C)OP(=O)(OC(C)C)C(Sc1cc(C(C)(C)C)c(O)c(C(C)(C)C)c1)P(=O)(OC(C)C)OC(C)C [Compound 22]
change in vivo at 180 mg/kg [2, 4]: -21%
change in vivo at 180 mg/kg [2, 5]: -37%
hypocholesterolemic activity (in words) ([2]; mice, 0.1% in chow, 10 days): hypocholesterolemic
hypotriglyceridemia (in words) ([2]; mice, 0.1% in chow, 10 days): significant hypotriglyceridemia

CCOP(=O)(OCC)C(=Cc1cc(C(C)(C)C)cc(C(C)(C)C)c1O)P(=O)(OCC)OCC [Compound 46]
change in vivo at 180 mg/kg [2, 4]: 1%
change in vivo at 180 mg/kg [2, 5]: -12%

COc1ccc2c(c1)c(CC(=O)O)c(C)n2C(=O)c1ccc(Cl)cc1 [Indomethacin, reference compound]
Inhibition of rat right hind paw volume increase, % Change from control [1]: -92.3 % Change from control
anti-inflammatory activity (in words) [1]: prevented completely the increase in paw volume

CCOP(=O)(OCC)C(Cc1cc(C)c(O)c(C(C)(C)C)c1)P(=O)(OCC)OCC [Compound 1, Tetraethyl 2-(3-tertiarybutyl-4-hydroxy-5-methylphenyl)-ethylidene-1,1-diphosphonate]
change in vivo at 180 mg/kg [2, 4]: -2%
change in vivo at 180 mg/kg [2, 5]: -28%

Cc1ccc(C)c(OCCCC(C)(C)C(=O)O)c1 [Gemfibrozil, reference compound]
change in vivo at 180 mg/kg [2, 6]: -7%
change in vivo at 180 mg/kg [2, 7]: -35%
hypocholesterolemic activity (in words) ([2]; mice, 0.1% in chow, 10 days): less hypocholesterolemic than many of the diphosphonates tested
hypotriglyceridemic potency (plasma triglyceride change) ([2]; mice, 0.1% in chow, 10 days): -35%

CCOP(=O)(OCC)C(=Cc1cc(C(C)C)c(O)c(C(C)C)c1)P(=O)(OCC)OCC [Compound 31]
change in vivo at 180 mg/kg [2, 4]: 4%
change in vivo at 180 mg/kg [2, 5]: -11%
hypotriglyceridemia (in words) ([2]; mice, 0.1% in chow, 10 days): significant hypotriglyceridemia

CCOP(=O)(OCC)C(=Cc1cc(C(C)(C)C)c(OC(C)=O)c(C(C)(C)C)c1)P(=O)(OCC)OCC [Compound 41, Tetraethyl 2-(3,5-ditertiarybutyl-4-acetoxyphenyl)-ethenylidene-1,1-diphosphonate]
change in vivo at 180 mg/kg [2, 4]: -3%
change in vivo at 180 mg/kg [2, 5]: 6%
